Data: PubChem BioAssay (NCI)
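Step 1: Grow cells in 96-well plates. Step 2: Expose to compound for 48 hours at 5 concentrations. Step 3: Interpolate endpoints linearly; if unreached, use highest concentration. Definition used: TGI = concentration required for complete inhibition of growth.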

How the values were obtained:
Experiment in all cases: growth of human tumour cells (NCI), 48 h
TK-10 renal = system: TK-10 renal
OVCAR-5 ovarian = system: OVCAR-5 ovarian
PC-3 prostate = system: PC-3 prostate
SNB-19 CNS = system: SNB-19 CNS
HCC-2998 colon = system: HCC-2998 colon
K-562 leukemia = system: K-562 leukemia
UACC-62 melanoma = system: UACC-62 melanoma
CCRF-CEM leukemia = system: CCRF-CEM leukemia
SF-268 CNS = system: SF-268 CNS
HOP-62 NSCLC = system: HOP-62 NSCLC
HS 578T breast = system: HS 578T breast
MOLT-4 leukemia = system: MOLT-4 leukemia
SK-MEL-5 melanoma = system: SK-MEL-5 melanoma
DU-145 prostate = system: DU-145 prostate
RPMI-8226 leukemia = system: RPMI-8226 leukemia
786-0 renal = system: 786-0 renal
SF-295 CNS = system: SF-295 CNS
MCF7 breast = system: MCF7 breast
MDA-N = system: MDA-N
OVCAR-8 ovarian = system: OVCAR-8 ovarian
NCI-H23 lung = system: NCI-H23 lung
NCI/ADR-RES ovarian = system: NCI/ADR-RES ovarian
NCI-H226 lung = system: NCI-H226 lung
HOP-92 NSCLC = system: HOP-92 NSCLC
HT29 colon = system: HT29 colon
NCI-H460 lung = system: NCI-H460 lung
SR leukemia = system: SR leukemia
T-47D breast = system: T-47D breast
ACHN renal = system: ACHN renal
SF-539 CNS = system: SF-539 CNS
A549 NSCLC = system: A549 NSCLC
EKVX NSCLC = system: EKVX NSCLC
IGROV1 ovarian = system: IGROV1 ovarian
SK-MEL-28 melanoma = system: SK-MEL-28 melanoma
UO-31 renal = system: UO-31 renal
M14 melanoma = system: M14 melanoma
NCI-H522 lung = system: NCI-H522 lung
HL-60(TB) leukemia = system: HL-60(TB) leukemia
SN12C renal = system: SN12C renal
KM12 colon = system: KM12 colon
HCT-15 colon = system: HCT-15 colon
SW-620 colon = system: SW-620 colon
U251 CNS = system: U251 CNS
MALME-3M melanoma = system: MALME-3M melanoma
COLO 205 colon = system: COLO 205 colon
OVCAR-4 ovarian = system: OVCAR-4 ovarian
MDA-MB-435 = system: MDA-MB-435
UACC-257 melanoma = system: UACC-257 melanoma
LOX IMVI melanoma = system: LOX IMVI melanoma
OVCAR-3 ovarian = system: OVCAR-3 ovarian
SNB-75 CNS = system: SNB-75 CNS
MDA-MB-231 breast = system: MDA-MB-231 breast
SK-MEL-2 melanoma = system: SK-MEL-2 melanoma
A498 renal = system: A498 renal
SK-OV-3 ovarian = system: SK-OV-3 ovarian
HCT-116 colon = system: HCT-116 colon

`CCOC1CCC2C(CCC(/C=C/c3ccc(O)c4ncccc34)N2C)C1` (stereo not given) showed a TGI (TK-10 renal) greater than 100 µM, a TGI (OVCAR-5 ovarian) greater than 100 µM and a TGI (PC-3 prostate) greater than 100 µM. The TGI (SNB-19 CNS) was greater than 100 µM, the TGI (HCC-2998 colon) was greater than 100 µM and the TGI (K-562 leukemia) was greater than 100 µM. For the same molecule, the TGI (UACC-62 melanoma) was greater than 100 µM, the TGI (CCRF-CEM leukemia) was greater than 100 µM and the TGI (SF-268 CNS) was greater than 100 µM. The TGI (HOP-62 NSCLC) was greater than 100 µM, the TGI (HS 578T breast) was 51.6 µM and the TGI (MOLT-4 leukemia) was greater than 100 µM. It also gave a TGI (SK-MEL-5 melanoma) greater than 100 µM, a TGI (DU-145 prostate) greater than 100 µM and a TGI (RPMI-8226 leukemia) greater than 100 µM. The TGI (786-0 renal) was greater than 100 µM, the TGI (SF-295 CNS) was greater than 100 µM and the TGI (MCF7 breast) was greater than 100 µM. The TGI (MDA-N) was greater than 100 µM, the TGI (OVCAR-8 ovarian) was greater than 100 µM and the TGI (NCI-H23 lung) was 66 µM. The TGI (NCI/ADR-RES ovarian) was greater than 100 µM, the TGI (NCI-H226 lung) was greater than 100 µM and the TGI (HOP-92 NSCLC) was 59.7 µM. For the same molecule, the TGI (HT29 colon) was greater than 100 µM, the TGI (NCI-H460 lung) was greater than 100 µM and the TGI (SR leukemia) was greater than 100 µM. For the same molecule, the TGI (T-47D breast) was 62 µM, the TGI (ACHN renal) was greater than 100 µM and the TGI (SF-539 CNS) was 29.2 µM. It also gave a TGI (A549 NSCLC) greater than 100 µM, a TGI (EKVX NSCLC) of 90.4 µM and a TGI (IGROV1 ovarian) greater than 100 µM. The TGI (SK-MEL-28 melanoma) was greater than 100 µM, the TGI (UO-31 renal) was greater than 100 µM and the TGI (M14 melanoma) was greater than 100 µM. It also gave a TGI (NCI-H522 lung) of 5.89 µM, a TGI (HL-60(TB) leukemia) greater than 100 µM and a TGI (SN12C renal) greater than 100 µM. For the same molecule, the TGI (KM12 colon) was 95.2 µM, the TGI (HCT-15 colon) was greater than 100 µM and the TGI (SW-620 colon) was greater than 100 µM. It also gave a TGI (U251 CNS) greater than 100 µM, a TGI (MALME-3M melanoma) greater than 100 µM and a TGI (COLO 205 colon) of 11.9 µM.

`C=CCC(NCc1ccccc1)[C@H](OCc1ccccc1)[C@@H]1COC(C)(C)O1` (stereo not given in full) was tested, and the TGI (TK-10 renal) was 70.8 µM, the TGI (OVCAR-5 ovarian) was greater than 100 µM and the TGI (OVCAR-4 ovarian) was greater than 100 µM. It also gave a TGI (MDA-MB-435) greater than 100 µM, a TGI (PC-3 prostate) greater than 100 µM and a TGI (SNB-19 CNS) greater than 100 µM. The TGI (K-562 leukemia) was 56.4 µM, the TGI (UACC-257 melanoma) was 58.1 µM and the TGI (LOX IMVI melanoma) was 72 µM. It also gave a TGI (UACC-62 melanoma) greater than 100 µM, a TGI (CCRF-CEM leukemia) of 69.9 µM and a TGI (SF-268 CNS) greater than 100 µM. For the same molecule, the TGI (HOP-62 NSCLC) was greater than 100 µM, the TGI (HS 578T breast) was greater than 100 µM and the TGI (MOLT-4 leukemia) was 83.1 µM. The TGI (OVCAR-3 ovarian) was greater than 100 µM, the TGI (SK-MEL-5 melanoma) was 55.2 µM and the TGI (DU-145 prostate) was greater than 100 µM. For the same molecule, the TGI (RPMI-8226 leukemia) was 44.4 µM, the TGI (786-0 renal) was greater than 100 µM and the TGI (SNB-75 CNS) was greater than 100 µM. For the same molecule, the TGI (SF-295 CNS) was 99.6 µM, the TGI (MDA-MB-231 breast) was greater than 100 µM and the TGI (SK-MEL-2 melanoma) was 46 µM. It also gave a TGI (MCF7 breast) greater than 100 µM, a TGI (MDA-N) greater than 100 µM and a TGI (OVCAR-8 ovarian) greater than 100 µM. It also gave a TGI (NCI-H23 lung) greater than 100 µM, a TGI (NCI/ADR-RES ovarian) greater than 100 µM and a TGI (A498 renal) greater than 100 µM. For the same molecule, the TGI (NCI-H226 lung) was 34.1 µM, the TGI (HOP-92 NSCLC) was 49 µM and the TGI (HT29 colon) was 27.1 µM. It also gave a TGI (SR leukemia) of 55 µM, a TGI (SK-OV-3 ovarian) greater than 100 µM and a TGI (ACHN renal) greater than 100 µM. It also gave a TGI (A549 NSCLC) greater than 100 µM, a TGI (EKVX NSCLC) greater than 100 µM and a TGI (IGROV1 ovarian) greater than 100 µM. The TGI (SK-MEL-28 melanoma) was greater than 100 µM, the TGI (HCT-116 colon) was greater than 100 µM and the TGI (UO-31 renal) was 83.1 µM. It also gave a TGI (M14 melanoma) greater than 100 µM, a TGI (SN12C renal) greater than 100 µM and a TGI (KM12 colon) greater than 100 µM. For the same molecule, the TGI (HCT-15 colon) was 64.9 µM, the TGI (SW-620 colon) was greater than 100 µM and the TGI (U251 CNS) was greater than 100 µM. For the same molecule, the TGI (MALME-3M melanoma) was 76.7 µM and the TGI (COLO 205 colon) was 41.3 µM.
